Experimental data from ChEMBL document CHEMBL1201862, “PubChem BioAssay data set” (2004).
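96-well plates; 48 h exposure; 5 concentrations. Endpoints by linear interpolation between flanking doses. Not reached: highest tested concentration assigned. GI50 marks 50% less growth.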 Calls of active or inactive are those of the source. Cut-off read from the data, not from the text of the source: active = GI50 up to about 1.1 µM and inactive = higher.

What was measured:
Test in all cases: DTP human tumour cell line panel, 48 h
[1] = tested on: CCRF-CEM
[2] = tested on: SK-MEL-28
[3] = tested on: SK-MEL-2
[4] = tested on: NCI-H226
[5] = tested on: RXF 393
[6] = tested on: HL-60
[7] = tested on: SNB-75
[8] = tested on: EKVX
[9] = tested on: RPMI-8226
[10] = tested on: SF-295
[11] = tested on: HOP-62
[12] = tested on: CAKI-1
[13] = tested on: MOLT-4
[14] = tested on: UACC-257
[15] = tested on: K562
[16] = tested on: SK-MEL-5

Measured: GI50

O=[N+]([O-])c1ccc(/C=N/C23CC4CC(CC(C4)C2)C3)cc1
inactive: [1] 80.4 µM | [2] > 100 µM | [3] > 100 µM | [4] > 100 µM | [5] > 100 µM | [6] 71.3 µM | [7] > 100 µM | [8] > 100 µM | [9] > 100 µM | [10] > 100 µM | [11] > 100 µM | [12] > 100 µM | [13] > 100 µM | [14] > 100 µM | [15] 54.7 µM

CN(C)/C=C/C(=O)c1cccc(C(=O)/C=C/N(C)C)n1
inactive: [1] > 100 µM | [2] > 100 µM | [3] > 100 µM | [4] > 100 µM | [5] > 100 µM | [6] > 100 µM | [16] > 100 µM | [7] > 100 µM | [8] > 100 µM | [9] > 100 µM | [10] > 100 µM | [11] > 100 µM | [13] > 100 µM | [14] > 100 µM | [15] > 100 µM

O=C1c2c(c3c4ccccc4n(CC4CO4)c3c3[nH]c4ccccc4c23)C(=O)N1Cc1ccccc1 (configuration not stated)
inactive: [1] > 100 µM | [2] > 100 µM | [3] > 100 µM | [4] 48.6 µM | [5] > 100 µM | [6] > 100 µM | [16] > 10 µM | [7] > 10 µM | [9] > 100 µM | [10] > 100 µM | [11] > 100 µM | [12] > 100 µM | [13] 38.6 µM | [14] > 100 µM | [15] 95.7 µM

CC1=NN(C(=O)Cc2ccccc2)C(=O)/C1=C\c1ccc([N+](=O)[O-])cc1
inactive: [1] > 100 µM | [2] > 100 µM | [3] > 100 µM | [4] > 100 µM | [5] > 100 µM | [16] > 100 µM | [8] > 100 µM | [9] > 100 µM | [10] > 100 µM | [11] > 100 µM | [12] > 100 µM | [13] > 100 µM | [14] > 100 µM | [15] > 100 µM

O=c1c2ccccc2nc(-c2cccc(Cl)c2)n1NCC1(O)OCC(O)C(O)C1O (configuration not stated)
inactive: [1] 41.7 µM | [2] > 100 µM | [3] > 100 µM | [4] > 100 µM | [5] 51.9 µM | [6] 30.7 µM | [16] > 10 µM | [7] > 10 µM | [8] > 100 µM | [9] 41.1 µM | [10] > 100 µM | [12] > 100 µM | [13] 48.2 µM | [14] > 100 µM | [15] 45.7 µM

CN1C(=O)N(c2nc3ccccc3[nH]2)C(C)(C)C1=O
inactive: [1] > 100 µM | [2] > 100 µM | [3] > 100 µM | [4] > 100 µM | [5] > 100 µM | [6] > 100 µM | [16] > 100 µM | [7] > 100 µM | [8] > 100 µM | [9] > 100 µM | [10] > 100 µM | [11] > 100 µM | [13] > 100 µM | [14] > 100 µM | [15] > 100 µM

CCOC(=O)c1[nH]c(COC(C)=O)c(CCCOC(C)=O)c1CCCOC(C)=O
inactive: [1] > 100 µM | [2] > 100 µM | [3] > 100 µM | [4] > 100 µM | [5] > 100 µM | [6] > 100 µM | [8] > 100 µM | [10] > 100 µM | [11] > 100 µM | [12] > 100 µM | [13] > 100 µM | [14] > 100 µM | [15] > 100 µM

CC1=CC=C2C(C)(C)CC[C@@H]3OC(=O)[C@H]1[C@]23C
inactive: [1] > 100 µM | [2] > 100 µM | [3] 15.5 µM | [4] > 100 µM | [5] > 100 µM | [6] > 100 µM | [16] > 100 µM | [7] > 100 µM | [8] > 100 µM | [10] > 100 µM | [11] > 100 µM | [12] > 100 µM | [13] > 100 µM | [14] > 100 µM | [15] > 100 µM

O=C1C2C=CC(n3[nH]c(=O)n(Cc4ccccc4)c3=O)CC2C(=O)N1c1cccc(Cl)c1 (configuration not stated)
inactive: [1] > 100 µM | [2] > 100 µM | [3] > 100 µM | [4] > 100 µM | [5] > 100 µM | [6] > 100 µM | [16] > 100 µM | [7] > 100 µM | [8] > 100 µM | [10] > 100 µM | [11] > 100 µM | [12] > 100 µM | [14] > 100 µM | [15] > 100 µM

O=C1OC(c2ccccc2)=N/C1=C/NC(Cc1ccccc1)C(=O)O (configuration not stated)
inactive: [1] > 100 µM | [2] > 100 µM | [3] > 100 µM | [4] > 100 µM | [5] > 100 µM | [6] > 100 µM | [16] > 100 µM | [7] 50.8 µM | [8] > 100 µM | [9] > 100 µM | [10] > 100 µM | [11] > 100 µM | [12] > 100 µM | [13] > 100 µM | [14] > 100 µM | [15] > 100 µM

COc1ccc(/C=C/c2nnc(S)[nH]2)cc1OC
inactive: [1] > 100 µM | [2] > 100 µM | [3] > 100 µM | [4] > 100 µM | [5] > 100 µM | [6] > 100 µM | [16] > 100 µM | [7] > 100 µM | [9] > 100 µM | [10] > 100 µM | [12] > 100 µM | [13] > 100 µM | [14] > 100 µM | [15] > 100 µM

Clc1ccccc1C1N2CCCCC2[C@@H]2c3[nH]c4ccccc4c3CCN12 (some centres not stated)
inactive: [1] 19.1 µM | [2] 18.5 µM | [3] 16.7 µM | [5] 22 µM | [6] 19.5 µM | [16] > 10 µM | [7] 32.4 µM | [8] 40.1 µM | [9] 23.8 µM | [10] 25.4 µM | [11] 29.9 µM | [12] > 10 µM | [13] 31 µM | [14] 18.7 µM | [15] 14.3 µM

CC1=CC(=O)CC2(C)CC[C@@H]3C[C@]12OC3(C)C (some centres not stated)
inactive: [1] > 100 µM | [2] > 100 µM | [3] > 100 µM | [4] > 100 µM | [5] > 100 µM | [6] > 100 µM | [16] > 100 µM | [7] > 100 µM | [8] > 100 µM | [9] > 100 µM | [10] > 100 µM | [11] > 100 µM | [12] > 100 µM | [13] > 100 µM | [14] > 100 µM | [15] > 100 µM
